Results taken from patent US20250296959A1, “B7-H3 TARGETING PEPTIDES AND CONSTRUCTS THEREOF” (Mariana Oncology Inc., priority 2024, published 2025).
Starred links: 1 amine or outer side, 2 acyl side, 3 side chain; linkers in the order of their positions; H or OH if unused. Positions of bridges follow the written chain, without caps; N, C: chain ends. Non-standard residues stand in square brackets, D forms with d. Residues, ends and D or L forms follow the SMILES beside them. *: point of attachment. Ala(piperidin-4-yl) = O=C([C@H](CC1CCN([*:3])CC1)N[*:1])[*:2]; DOTA = O=C(O)CN1CCN(CC(=O)O)CCN(CC(=O)*)CCN(CC(=O)O)CC1; NH(CH2CH2O)4CH2CO = O=C(COCCOCCOCCOCCN[*:1])[*:2]; Trp(5-F) = N[C@@H](Cc1c[nH]c2ccc(F)cc12)C(=O)O; Trp(1-Me) = Cn1cc(C[C@H](N)C(=O)O)c2ccccc21; Phe(4-F) = N[C@@H](Cc1ccc(F)cc1)C(=O)O; 1Nal = N[C@@H](Cc1cccc2ccccc12)C(=O)O; Ala(4-THP) = N[C@@H](CC1CCOCC1)C(=O)O; cisHyp = O=C(O)[C@@H]1C[C@H](O)CN1; 4Pal = N[C@@H](Cc1ccncc1)C(=O)O; Cha = N[C@@H](CC1CCCCC1)C(=O)O; Tle = CC(C)(C)[C@H](N)C(=O)O; hLeu = CC(C)CC[C@H](N)C(=O)O; NMeS = CN[C@@H](CO)C(=O)O

Molecular target: T1, human 4lg B7-H3 (Homo sapiens, UniProt Q5ZPR3)
T1 sequence (Q5ZPR3 29-534): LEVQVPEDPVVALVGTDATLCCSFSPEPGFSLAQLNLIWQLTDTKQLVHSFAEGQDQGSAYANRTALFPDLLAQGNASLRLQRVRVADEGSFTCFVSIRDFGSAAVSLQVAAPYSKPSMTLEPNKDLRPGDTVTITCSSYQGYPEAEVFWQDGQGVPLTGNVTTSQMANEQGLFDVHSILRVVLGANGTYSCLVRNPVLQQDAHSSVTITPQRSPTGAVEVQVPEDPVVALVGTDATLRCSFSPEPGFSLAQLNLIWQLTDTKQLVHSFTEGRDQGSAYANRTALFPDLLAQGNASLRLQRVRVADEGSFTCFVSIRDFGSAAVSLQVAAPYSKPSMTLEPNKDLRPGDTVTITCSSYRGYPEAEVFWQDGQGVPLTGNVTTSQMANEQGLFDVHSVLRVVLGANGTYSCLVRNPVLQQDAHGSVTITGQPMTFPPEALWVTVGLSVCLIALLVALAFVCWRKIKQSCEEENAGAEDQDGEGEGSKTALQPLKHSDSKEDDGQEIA
Assay: Affinity determination by surface plasmon resonance (SPR) to 4Ig B7-H3
Conditions: SPR KD—25° C., 4Ig B7-H3; 25° C. flow cell temperature

Compound	Kd
CC(=O)N[C@@H](CCC(C)C)C(=O)N[C@@H](Cc1ccc(O)cc1)C(=O)N[C@H]1CSSC[C@@H](C(=O)N[C@@H](Cc2c[nH]c3ccccc23)C(=O)N[C@@H](Cc2ccccc2)C(=O)N[C@H](C(=O)N[C@H](CCCCNC(=O)CN2CCN(CC(=O)O)CCN(CC(=O)O)CCN(CC(=O)O)CC2)C(N)=O)[C@@H](C)O)NC(=O)[C@H](Cc2ccc(O)cc2)NC(=O)[C@H](C(C)C)NC(=O)[C@H](CC(=O)O)NC(=O)[C@H](CC2CCNCC2)NC(=O)[C@H](CCCCN)NC(=O)CNC(=O)[C@H](C(C)C)NC1=O [compound 135, Ac-hLeu-Y-C-V-G-K-PipAla-D-V-Y-C-W-F-Thr-dLys(DOTA)-CONH2] (Ac-[hLeu]YCVGK[Ala(piperidin-4-yl)]DVYCWFT[dK](DOTA)-NH2; disulfide 3-11)	1 to 10 nM
CC(=O)N[C@@H](CCC(C)C)C(=O)N[C@@H](Cc1ccc(O)cc1)C(=O)N[C@H]1CSSC[C@@H](C(=O)N[C@@H](Cc2cn(C)c3ccccc23)C(=O)N[C@@H](Cc2ccccc2)C(=O)N[C@H](C(=O)N[C@H](CCCCNC(=O)CN2CCN(CC(=O)O)CCN(CC(=O)O)CCN(CC(=O)O)CC2)C(N)=O)[C@@H](C)O)NC(=O)[C@H](Cc2ccc(O)cc2)NC(=O)[C@H](C(C)C)NC(=O)[C@H](CC(=O)O)NC(=O)[C@H](Cc2ccc(O)cc2)NC(=O)[C@H](CCCCN)NC(=O)CNC(=O)[C@H](C(C)C)NC1=O [compound 150, Ac-hLeu-Y-C-V-G-K-Y-D-V-Y-C-Trp(Me)-F-Thr-dLys(DOTA)-CONH2] (Ac-[hLeu]YCVGKYDVYC[Trp(1-Me)]FT[dK](DOTA)-NH2; disulfide 3-11)	< 1 nM

Now from value to molecule:

Kd	Compound
1 to 10 nM	CC[C@H](C)[C@@H]1NC(=O)[C@@H](NC(=O)[C@H](Cc2ccc(O)cc2)NC(=O)[C@H](CCC(C)C)NC(C)=O)CSSC[C@@H](C(=O)N[C@@H](Cc2c[nH]c3ccc(F)cc23)C(=O)N[C@@H](Cc2ccccc2)C(=O)N2C[C@@H](O)C[C@H]2C(N)=O)NC(=O)[C@H](Cc2ccc(O)cc2)NC(=O)[C@H](C(C)C)NC(=O)[C@H](CC(=O)O)NC(=O)[C@H](Cc2ccncc2)NC(=O)[C@H](CCCCNC(=O)CN2CCN(CC(=O)O)CCN(CC(=O)O)CCN(CC(=O)O)CC2)NC(=O)CNC1=O [compound 251, Ac-hLeu-Y-C-Ile-G-Lys(DOTA)-4PyA-D-V-Y-C-5FW-F-(cisHyp)-CONH2] (Ac-[hLeu]YCIGK(DOTA)[4Pal]DVYC[Trp(5-F)]F[cisHyp]-NH2; disulfide 3-11)
10 to 100 nM	CC(C)CC[C@H](NC(=O)COCCOCCOCCOCCNC(=O)CN1CCN(CC(=O)O)CCN(CC(=O)O)CCN(CC(=O)O)CC1)C(=O)N[C@@H](Cc1ccc(F)cc1)C(=O)N[C@H]1CSSC[C@@H](C(=O)N[C@@H](Cc2cccc3ccccc23)C(=O)N[C@@H](Cc2ccccc2)C(=O)N2CCC[C@H]2C(N)=O)NC(=O)[C@H](Cc2ccc(O)cc2)NC(=O)[C@H](C(C)C)NC(=O)[C@H](CC(=O)O)NC(=O)[C@H](CC2CCOCC2)NC(=O)[C@H](CC2CCNCC2)NC(=O)CNC(=O)[C@H](C(C)(C)C)NC1=O [compound 283, DOTA-PEG4-hLeu-4FPhe-C-Tbg-G-PipAla-ThpA-D-V-Y-C-1Nal-F-Pro-CONH2] ({DOTA}-[NH(CH2CH2O)4CH2CO][hLeu][Phe(4-F)]C[Tle]G[Ala(piperidin-4-yl)][Ala(4-THP)]DVYC[1Nal]FP-NH2; disulfide 4-12)
< 1 nM	CC(=O)N[C@@H](CCC(C)C)C(=O)N[C@@H](Cc1ccc(O)cc1)C(=O)N[C@H]1CSSC[C@@H](C(=O)N[C@@H](Cc2c[nH]c3ccc(F)cc23)C(=O)N[C@@H](Cc2ccccc2)C(=O)N(C)[C@@H](CO)C(=O)N[C@H](CCCCNC(=O)CN2CCN(CC(=O)O)CCN(CC(=O)O)CCN(CC(=O)O)CC2)C(N)=O)NC(=O)[C@H](Cc2ccc(O)cc2)NC(=O)[C@H](C(C)C)NC(=O)[C@H](CC(=O)O)NC(=O)[C@H](CC2CCCCC2)NC(=O)[C@H](CC2CCNCC2)NC(=O)CNC(=O)[C@H](C(C)C)NC1=O [compound 236, Ac-hLeu-Y-C-V-G-PipAla-CHA-D-V-Y-C-5FW-F-NMeSer-dLys(DOTA)-CONH2] (Ac-[hLeu]YCVG[Ala(piperidin-4-yl)][Cha]DVYC[Trp(5-F)]F[NMeS][dK](DOTA)-NH2; disulfide 3-11)
